Among the data in US5556859A, “N-(4-pyrimidinyl)amide pesticides” (DowElanco, priority 1994, dated 1996) are mortality values, retold here.

Test [1] concerns tobacco budworm (Heliothis virescens). Nature of the test: Activity against tobacco budworm (TBW). In kind it is in vivo. Particulars: 144 h, read-out: percent mortality, TBW. As for the experimental part:
In conducting evaluations of insecticidal activity, each test compound was formulated as a 400 ppm solution, and this solution was then diluted with water to give lesser concentrations. The 400 ppm solution was prepared by combining 19.2 mL of 0.05% solution of Tween 20 (polyoxyethylene (20) sorbitan monolaurate) in water with a solution of 8 mg of the compound in 0.8 mL of acetone/EtOH (9/1).
Activity against tobacco budworm (Heliothis virescens) was evaluated as follows. A general purpose lepidoptera artificial diet was diluted to half strength with a 5% non nutritive agar. 8 mL of this diet material was dispensed into each one ounce diet cup. One hour prior to treatment 18 to 20 eggs were dispensed onto the diet surface. The cups were then sprayed with formulated material through a flat-fan nozzle. The test was run using concentrations of 400 ppm and 50 ppm. Treated cups were air dried prior to sealing with plastic caps. The cups were held for 6 days at room temperature. Activity was then rated based on the total number of live and dead larvae, and on the size of live larvae.

In test [2] the test system is beet armyworm (Spodoptera exiqua). Nature of the test: whole plant or invertebrate. Particulars: 144 h, read-out: percent mortality, BAW.
In test [3] the test system is cotton aphid (Aphis gossypii). The experiment in a line: whole plant or invertebrate. The following applies: 72 h, read-out: percent mortality, CA.
The test system of test [4] is peanut root knot nematode (Meloidogyne arenaria). Nature of the test: whole plant or invertebrate. Particulars: in Arachis hypogaea, read-out: percent mortality, RKN.
The subject of test [5] is Southern corn rootworm (Diabrotica undecimpuctata howardi Barber). The experiment in a line: whole plant or invertebrate. Particulars: in Zea mays, soil, read-out: percent mortality, SCRW.
The subject of test [6] is two spotted spider mite (Tetranychus urticae). The experiment in a line: whole plant or invertebrate. Particulars: 72 h, read-out: percent mortality, TSSM.
In test [7] the test system is German cockroach (Blattella germanicus). Nature of the test: whole plant or invertebrate. The following applies: 240 h, read-out: percent mortality, GECR.

`CCc1nccc(NC(=O)Cc2ccc(Oc3ccc(Cl)cc3)cc2)n1` [Compound 17, 4-(4-chlorophenoxy)phenyl-N-(2-ethyl-4-pyrimidinyl)acetamide]: the mortality at 400 ppm in test [1], in test [2], in test [3], in test [4], in test [6] and in test [7] was 100% throughout. Also, in test [5], the mortality at 24 µg/g was 100%.
`CCCc1nccc(NC(=O)Cc2ccc(OCC(F)(F)F)cc2)n1` [Compound 18, 4-(2,2,2-trifluroethoxy)phenyl-N-(2-propyl-4-pyrimidinyl)acetamide]: the mortality at 400 ppm was 80% in test [1]; 100% in test [2]; 100% in test [3]; 100% in test [4]; 80% in test [6]; 20% in test [7]. Also, the mortality at 24 µg/g in test [5] came out at 0%.
For the compound `CCCc1nccc(NC(=O)Cc2ccc(Oc3ccc(F)cc3)cc2)n1` [Compound 19, 4-(4-fluorophenoxy)phenyl-N-(2-propyl-4-pyrimidinyl)acetamide], the mortality at 400 ppm in test [1], in test [2], in test [3], in test [4], in test [6] and in test [7] was 100% throughout. Besides, in test [5], the mortality at 24 µg/g came out at 100%.
On to `CCCCc1nccc(NC(=O)Cc2ccc(OCC(F)(F)F)cc2)n1` [Compound 20, 4-(2,2,2-trifluroethoxy)phenyl-N-(2-butyl-4-pyrimidinyl)acetamide], for which the mortality at 400 ppm is 0% in test [1]; 100% in test [2]; 0% in test [3]; 80% in test [4]; 0% in test [6]; 0% in test [7]. In addition, the mortality at 24 µg/g in test [5] was found to be 100%.
Take `CCCCc1nccc(NC(=O)Cc2ccc(Oc3ccc(F)cc3)cc2)n1` [Compound 21, 4-(4-fluorophenoxy)phenyl-N-(2-butyl-4-pyrimidinyl)acetamide]: the mortality at 400 ppm in test [1] came out at 100%; in test [2], 100%; in test [3], 100%; in test [4] it was 90%; in test [6], 100%; in test [7], 100%. Also, the mortality at 24 µg/g in test [5] worked out at 0%.
As to `O=C(Cc1ccc(OCC(F)(F)F)cc1)Nc1ccnc(C2CCC2)n1` [Compound 22, 4-(2,2,2-trifluroethoxy)phenyl-N-(2-cyclobutyl-4-pyrimidinyl)acetamide], the mortality at 400 ppm in test [1] is 0%; in test [2], 100%; in test [3], 100%; in test [4] it was 100%; in test [6], 100%; in test [7], 80%. The mortality at 24 µg/g in test [5] worked out at 100%.
In the case of `O=C(Cc1ccc(Oc2ccc(F)cc2)cc1)Nc1ccnc(C2CCC2)n1` [Compound 23, 4-(4-fluorophenoxy)phenyl-N-(2-cyclobutyl-4-pyrimidinyl)acetamide], the mortality at 400 ppm in test [1], in test [2], in test [3], in test [4], in test [6] and in test [7] was 100% each time. In addition, the mortality at 24 µg/g in test [5] was 0%.
In the case of `CC(C)(C)c1nccc(NC(=O)Cc2ccc(OCC(F)(F)F)cc2)n1` [Compound 24, 4-(2,2,2-trifluroethoxy)phenyl-N-(2-(1,1-dimethylethyl)-4-pyrimidinyl)acetamide], the mortality at 400 ppm in test [1] was found to be 100%; in test [2], 100%; in test [3] it was 90%; in test [4], 0%; in test [6], 60%; in test [7], 0%. Moreover, the mortality at 24 µg/g in test [5] stood at 100%.
`CC(C)(C)c1nccc(NC(=O)Cc2ccc(Oc3ccc(F)cc3)cc2)n1` [Compound 25, 4-(4-fluorophenoxy)phenyl-N-(2-(1,1-dimethylethyl)-4-pyrimidinyl)acetamide]: the mortality at 400 ppm in test [1], in test [2], in test [3], in test [4], in test [6] and in test [7] was 100% throughout. Besides, the mortality at 24 µg/g in test [5] turned out to be 100%.
In the case of `C=C(C)c1nccc(NC(=O)Cc2ccc(Oc3ccc(F)cc3)cc2)n1` [Compound 27, 4-(4-fluorophenoxy)phenyl-N-(2-(1-methylethenyl)-4-pyrimidinyl)acetamide], the mortality at 400 ppm in test [1] stood at 0%; in test [2], 0%; in test [3] it was 100%; in test [4] it was 0%; in test [6] it was 0%; in test [7], 0%. The mortality at 24 µg/g in test [5] is 0%.
As for `CCc1nccc(NC(=O)Cc2ccc(-c3ccccc3)cc2)n1` [Compound 40], the mortality at 400 ppm came out at 40% in test [1], 20% in test [2], 60% in test [3] and 0% in test [6].
The matching figures for `CCCCCc1ccc(CC(=O)Nc2ccnc(CC)n2)cc1` [Compound 41, 4-pentylphenyl-N-(2-ethyl-4-pyrimidinyl)acetamide]: 40%, 100%, 100% and 100%.
For `CCc1nccc(NC(=O)Cc2ccc(OC(F)F)cc2)n1` [Compound 42, 4-difluromethoxy-N-(2-ethyl-4-pyrimidinyl)acetamide] the same measures were 0%, 40%, 100% and 100%.
Take `CCc1nccc(NC(=O)Cc2ccc(OCC(F)(F)C(F)F)cc2)n1` [Compound 43, 4-(2,2,3,3-tetrafluropropoxy)phenyl-N-(2-ethyl-4-pyrimidinyl)acetamide]: the mortality at 400 ppm in test [1] is 60%; in test [2], 60%; in test [3] it was 100%; in test [6], 100%.
Consider `CCCCOc1ccc(CC(=O)Nc2ccnc(CC)n2)cc1` [Compound 44, 4-butoxyphenyl-N-(2-ethyl-4-pyrimidinyl)acetamide], for which the mortality at 400 ppm in test [1] is 0%; in test [2], 100%; in test [3], 100%; in test [6], 90%.
On to `CCc1nccc(NC(=O)Cc2ccc(C(C)C)cc2)n1` [Compound 45, 4-(1-methylethyl)phenyl-N-(2-ethyl-4-pyrimidinyl)acetamide], for which the mortality at 400 ppm was found to be 0% in test [1], 100% in test [2], 100% in test [3] and 100% in test [6].
`CCc1nccc(NC(=O)COc2ccc(C(C)C)cc2)n1` [Compound 46, 4-(1-methylethyl)phenoxy-N-(2-ethyl-4-pyrimidinyl)acetamide]: the mortality at 400 ppm in test [1], in test [2], in test [3] and in test [6] was 0% each time.
Take `CCc1nccc(NC(=O)Cc2ccc(Oc3ccccc3)cc2)n1` [Compound 47, 4-phenoxyphenyl-N-(2-ethyl-4-pyrimidinyl)acetamide]: the mortality at 400 ppm was 40% in test [1], 100% in test [2], 100% in test [3] and 100% in test [6].
On to `CCc1nccc(NC(=O)Cc2ccc(C(C)(C)C)cc2)n1` [Compound 48, 4-(1,1-dimethylethyl)phenyl-N-(2-ethyl-4-pyrimidinyl)acetamide], for which the mortality at 400 ppm in test [1] came to 20%; in test [2], 0%; in test [3], 100%; in test [6], 100%.
As for `CCc1nccc(NC(=O)Cc2ccc(Oc3ccc(C(C)=O)cc3)cc2)n1` [Compound 49, 4-(4-acetylphenoxy)phenyl-N-(2-ethyl-4-pyrimidinyl)acetamide], the mortality at 400 ppm in test [1] was determined as 40%; in test [2], 100%; in test [3], 100%; in test [6], 100%.
For `CCc1nccc(NC(=O)Cc2ccc3ccccc3c2)n1` [Compound 50, 2-naphthyl-N-(2-ethyl-4-pyrimidinyl)acetamide], the mortality at 400 ppm in test [1] came out at 40%; in test [2], 60%; in test [3] it was 100%; in test [6], 100%.

One may read the mortality as the share of the test organisms that died.
